Measurements published in US20070249670A1, “Glycogen Phosphorylase Inhibitor Compounds and Pharmaceutical Compositions Thereof” (SMITHKLINE BEECHAM CORPORATION, priority 2004, published 2007).

Target: T1, human liver glycogen phosphorylase a (HLGPa) (Homo sapiens, UniProt P06737)
T1 construct: creating a full-length cDNA fused at the 5′ end to codons for methionine-glycine-alanine-histidine; 6xHis tag (leader Met-Gly-Ala-His6-Gly-Gly) (N); made in house; host or cells: E. coli (bacterial expression plasmid pTXK1007LTev)
T1 sequence (P06737 2-847 limits assumed): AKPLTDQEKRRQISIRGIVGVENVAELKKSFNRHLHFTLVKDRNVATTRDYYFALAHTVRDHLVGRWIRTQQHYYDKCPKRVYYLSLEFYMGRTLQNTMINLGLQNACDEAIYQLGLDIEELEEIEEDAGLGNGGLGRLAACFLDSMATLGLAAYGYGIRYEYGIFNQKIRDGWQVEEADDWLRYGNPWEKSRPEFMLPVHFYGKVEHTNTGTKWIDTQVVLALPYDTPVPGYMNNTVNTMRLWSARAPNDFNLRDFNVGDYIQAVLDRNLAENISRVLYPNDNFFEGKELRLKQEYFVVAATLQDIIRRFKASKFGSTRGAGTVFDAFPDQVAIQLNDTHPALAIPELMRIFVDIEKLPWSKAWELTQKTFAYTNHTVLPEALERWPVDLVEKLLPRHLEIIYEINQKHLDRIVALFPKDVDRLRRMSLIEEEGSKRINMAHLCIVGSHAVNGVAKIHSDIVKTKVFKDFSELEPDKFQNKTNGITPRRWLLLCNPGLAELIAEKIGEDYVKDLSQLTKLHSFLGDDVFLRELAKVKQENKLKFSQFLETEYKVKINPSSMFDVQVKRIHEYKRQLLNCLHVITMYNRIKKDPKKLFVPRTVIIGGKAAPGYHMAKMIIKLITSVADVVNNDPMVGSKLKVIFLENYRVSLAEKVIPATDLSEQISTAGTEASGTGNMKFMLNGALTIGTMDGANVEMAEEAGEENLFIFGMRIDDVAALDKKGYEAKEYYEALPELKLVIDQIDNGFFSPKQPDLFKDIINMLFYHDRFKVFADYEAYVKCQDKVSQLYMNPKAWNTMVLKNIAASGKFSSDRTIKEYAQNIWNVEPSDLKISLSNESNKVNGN
Assay: Human liver glycogen phosphorylase a enzymatic activity assay (coupled, fluorescent resorufin readout, with and without 10 mM glucose)
Type: biochemical
Conditions: human liver glycogen phosphorylase a enzymatic activity assay

| SMILES | IC50 |
| --- | --- |
| Cc1cccc(Cl)c1NC(=O)Nc1cc2ccccc2cc1C(=O)N[C@@H](Cc1cccs1)C(=O)O [Example 102, N-{[3-({[(2-chloro-6-methylphenyl)amino]carbonyl}amino)-2-naphthalenyl]carbonyl}-3-(2-thienyl)-L-alanine] | 360 nM |
| CCc1cccc(CC)c1NC(=O)Nc1cc(Cl)ccc1C(=O)N[C@H](Cc1ccccc1F)C(=O)O [Example 121, N-[4-chloro-2-({[(2,6-diethylphenyl)amino]carbonyl}amino)benzoyl]-2-fluoro-D-phenylalanine] | 3440 nM |
| Cc1cc(C)c(CC(=O)Nc2cc3ccccc3cc2C(=O)N[C@H](C(=O)O)C2CCCCC2)c(C)c1 [Example 457, (2S)-cyclohexyl{[(3-{[(2,4,6-trimethylphenyl)acetyl]amino}-2-naphthalenyl)carbonyl]amino}ethanoic acid] | 64 nM |
| Cc1cccc(C)c1NC(=O)Nc1cc(-c2ccncc2)ccc1C(=O)N[C@H](C(=O)O)C1CCCCC1 [Example 185, (2S)-Cyclohexyl({[2-({[(2,6-dimethylphenyl)amino]carbonyl}amino)-4-(4-pyridinyl)phenyl]carbonyl}amino)ethanoic acid] | 170 nM |
| Cc1cccc(C)c1NC(=O)Nc1cc(Cl)ccc1C(=O)NCC(=O)O [Example 170, N{[4chloro2({[(2,6dimethylphenyl)amino]carbonyl}amino)phenyl]carbonyl}glycine] | 2910 nM |
| Cc1cc(C)c(NC(=O)Nc2cc(N)ccc2C(=O)N[C@H](C(=O)O)C2CCCCC2)c(C)c1 [Example 196, (2S)-({[4-Amino-2-({[(2,4,6-trimethylphenyl)amino]carbonyl}-amino)phenyl]carbonyl}amino)(cyclohexyl)ethanoic acid] | 110 nM |
| Cc1cc(C)c(NC(=O)Nc2cc(-c3cccc(F)c3)ccc2C(=O)N[C@@H](CC(=O)O)C(=O)O)c(C)c1 [Example 507, N-{[3′-fluoro-3-({[(2,4,6-trimethylphenyl)amino]carbonyl}amino)-4-biphenylyl]carbonyl}-L-aspartic acid] | 53 nM |
| Cc1cccc(C)c1NC(=O)Nc1cc(-c2cncnc2)ccc1C(=O)N[C@H](C(=O)O)C1CCCCC1 [Example 189, (2S)-Cyclohexyl({[2-({[(2,6-dimethylphenyl)amino]carbonyl}amino)-4-(5-pyrimidinyl)phenyl]carbonyl}amino)ethanoic acid] | 330 nM |
| Cc1cccc(C)c1NC(=O)Nc1sc2ccccc2c1C(=O)N[C@H](C(=O)O)C1CCCCC1 [Example 4, (2S)-cyclohexyl({[2-({[(2,6-dimethylphenyl)amino]carbonyl}amino)-1-benzothien-3-yl]carbonyl}amino)acetic acid] | 730 nM |

Continued, values first:

| IC50 | SMILES |
| --- | --- |
| 16900 nM | Cc1ccccc1NC(=O)Nc1cc2ccccc2cc1C(=O)N[C@@H](Cc1ccccc1)C(=O)O [Example 45, N-[3-({[(2-methylphenyl)amino]carbonyl}amino)-2-naphthoyl]-L-phenylalanine] |
| 10400 nM | O=C(O)CC[C@H](NC(=O)c1cc2ccccc2cc1NC(=O)Nc1ccccc1Cl)C(=O)O [Example 55, N-[3-({[(2-chlorophenyl)amino]carbonyl}amino)-2-naphthoyl]-L-glutamic acid] |
| 93 nM | COc1ccc(-c2cc(NC(=O)Nc3c(Cl)cccc3Cl)c(C(=O)N[C@H](C(=O)O)C3CCCCC3)s2)cc1 [Example 409, (2S)-cyclohexyl[({3-({[(2,6-dichlorophenyl)amino]carbonyl}amino)-5-[4-(methyloxy)phenyl]-2-thienyl}carbonyl)amino]ethanoic acid] |
| 680 nM | Cc1ccc(NC(=O)Nc2c(C)cccc2C)c(C(=O)N[C@H](C(=O)O)C2CCCCC2)c1 [Example 169, (2S)Cyclohexyl({[2({[(2,6dimethylphenyl)amino]carbonyl}amino)-5-methylphenyl]carbonyl}amino)ethanoic acid] |
| 520 nM | Cc1cccc(Cl)c1NC(=O)Nc1cc2ccccc2cc1C(=O)N[C@@H](C)C(=O)O [Example 33, N-[3-({[(2-chloro-6-methylphenyl)amino]carbonyl}amino)-2-naphthoyl]-L-alanine] |
| 7630 nM | O=C(Nc1ccccc1Cl)Nc1cc2ccccc2cc1C(=O)NC(C(=O)O)c1ccccc1 (centres unmarked) [Example 100, {[3-({[(2-chlorophenyl)amino]carbonyl}amino)-2-naphthoyl]amino}(phenyl)acetic acid] |
| 68 nM | O=C(Nc1cc2ccccc2cc1C(=O)N[C@H](C(=O)O)C1CCCCC1)Nc1c(Cl)cccc1C(F)(F)F [Example 160, (2S)-({3-[({[2-chloro-6-(trifluoromethyl)phenyl]amino}carbonyl)amino]-2-naphthoyl}amino)(cyclohexyl)ethanoic acid] |
| 540 nM | O=C(Nc1cc2ccccc2cc1C(=O)N[C@@H](CC1CCCCC1)C(=O)O)Nc1c(Cl)cccc1Cl [Example 146, 3-cyclohexyl-N-{[3-({[(2,6-dichlorophenyl)amino]carbonyl}amino)-2-naphthalenyl]carbonyl}-L-alanine] |

Same assay, conditions: human liver glycogen phosphorylase a; table does not say whether with or without 10 mM glucose

| SMILES | IC50 |
| --- | --- |
| Cc1cc(C)c(NC(=O)Nc2cc3ccccc3cc2C(=O)NC2(C(=O)O)CCN(C(=O)OC(C)(C)C)CC2)c(C)c1 [Example 287, 1-{[(1,1-Dimethylethyl)oxy]carbonyl}-4-({[3-({[(2,4,6-trimethylphenyl)amino]carbonyl}amino)-2-naphthalenyl]carbonyl}amino)-4-piperidinecarboxylic acid] | 430 nM |
| O=C(Nc1cc2ccccc2nc1C(=O)N[C@H](C(=O)O)C1CCCCC1)Nc1c(Cl)cccc1Cl [Example 298, (2S)-Cyclohexyl({[3-({[(2,6-dichlorophenyl)amino]carbonyl}amino)-2-quinolinyl]carbonyl}amino)ethanoic acid] | 150 nM |
| Cc1cc(C)c(NC(=O)Nc2cc3ccccc3nc2C(=O)N[C@](C)(C(=O)O)C2CCCCC2)c(C)c1 [Example 312, 2-Cyclohexyl-N-{[3-({[(2,4,6-trimethylphenyl)amino]carbonyl}amino)-2-quinolinyl]carbonyl}-D-alanine] | 230 nM |
| O=C(O)CCN(Cc1ccccc1)C(=O)c1cc2ccccc2cc1NC(=O)Nc1c(Cl)cccc1Cl [Example 331, N-{[3-({[(2,6-dichlorophenyl)amino]carbonyl}amino)-2-naphthalenyl]carbonyl}-N-(phenylmethyl)-beta-alanine] | 2180 nM |
| Cc1cc(C)c(NC(=O)Nc2cc(-c3ccc(N)cc3)ccc2C(=O)N[C@H](C(=O)O)C2CCCCC2)c(C)c1 [Example 199, (2S)-({[4′-Amino-3-({[(2,4,6-trimethylphenyl)amino]carbonyl}amino)-4-biphenylyl]carbonyl}amino)(cyclohexyl)ethanoic acid] | 4 nM |

Other lines, results leading:

| IC50 | SMILES |
| --- | --- |
| 9 nM | COc1ccc(-c2ccc(C(=O)N[C@H](C(=O)O)C3CCCCC3)c(NC(=O)Nc3c(Cl)cc(OC(F)(F)F)cc3Cl)c2)cc1 [Example 215, (2S)-Cyclohexyl({[3-{[({2,6-dichloro-4-[(trifluoromethyl)oxy]phenyl}amino)carbonyl]amino}-4′-(methyloxy)-4-biphenylyl]carbonyl}amino)ethanoic acid] |
| 96 nM | CNC(=O)Nc1ccc(C(=O)N[C@H](C(=O)O)C2CCCCC2)c(NC(=O)Nc2c(C)cc(C)cc2C)c1 [Example 206] |
| 1960 nM | Cc1cc(C)c(NC(=O)Nc2cc(S(C)(=O)=O)ccc2C(=O)N[C@H](C(=O)O)C2CCCCC2)c(C)c1 [Example 220, (2S)-Cyclohexyl({[4-(methylsulfonyl)-2-({[(2,4,6-trimethylphenyl)amino]carbonyl}amino)phenyl]carbonyl}amino)ethanoic acid] |
| 170 nM | COc1ccc(-c2cnc(C(=O)N[C@H](C(=O)O)[C@@H](C)OC(C)(C)C)c(NC(=O)Nc3c(C)cc(C)cc3C)c2)cc1 [Example 323, O-(1,1-dimethylethyl)-N-{[5-[4-(methyloxy)phenyl]-3-({[(2,4,6-trimethylphenyl)amino]carbonyl}amino)-2-pyridinyl]carbonyl}-L-threonine] |
| 10300 nM | Cc1cc(C)c(-c2ccc(C(=O)Nc3cc4ccccc4cc3C(=O)N[C@H](C(=O)O)C3CCCCC3)o2)c(C)c1 [Example 270, (2S)-cyclohexyl({[3-({[5-(2,4,6-trimethylphenyl)-2-furanyl]carbonyl}amino)-2-naphthalenyl]carbonyl}amino)ethanoic acid] |
| 2470 nM | Cc1cc(C)c(NC(=O)Nc2cc3ccccc3cc2C(=O)N2CCC[C@@H]2C(=O)O)c(C)c1 [Example 357, 1-{[3-({[(2,4,6-trimethylphenyl)amino]carbonyl}amino)-2-naphthalenyl]carbonyl}-D-proline] |
| 1280 nM | O=C(O)C[C@H](NC(=O)c1ccc(F)cc1NC(=O)Nc1c(Cl)cccc1Cl)C(=O)O [Example 364, N-{[2-({[(2,6-dichlorophenyl)amino]carbonyl}amino)-4-fluorophenyl]carbonyl}-L-aspartic acid] |
